Results on one compound are retold here after patent US20120027905A1, “POLYENE ANTIFUNGAL COMPOSITIONS” (DSM IP ASSETS B.V., priority 2009, published 2012).

The conditions of data set [1]: cited from earlier work.
Data set [2] concerns Penicillium italicum (ATCC 36041). The data set is described as follows: Antifungal efficacy of natamycin/thickener compositions on wounded oranges (dip treatment). The data set is classed as in vivo. Particulars: after 23 days of storage at room temperature; 0.2% (w/v) thickening agent, 1000 μg/ml natamycin; dipped one minute, P. italicum. On the procedure: In a further experiment the antifungal activity of antimicrobial compositions comprising 1000 μg/ml natamycin and 0.2% (w/v) of the thickening agents described above was examined on oranges. The oranges were obtained from a local retailer in The Netherlands. The oranges were treated with spores of the mould Penicillium italicum (ATCC 36041). The mould spores were obtained using well-known methods. The oranges were injured according to the method described by Lapere de Bellaire and Dubois (see Plant disease 81:1378-1383, ([…])). Oranges were wounded three times using a cork borer followed by contamination per wound with 5 μl of a P. italicum spore suspension containing 10^6 spores/ml. After incubation for 1 hour at room temperature, the oranges were dipped for one minute into the freshly prepared antimicrobial compositions, dripped off and dried to the air. The experiment was executed in ninefold. The oranges were stored for 23 days under the conditions as described above and were judged visually on mould development.

Data set [3] deals with Botrytis cinerea (ATCC 12481). The data set is described as follows: Antifungal efficacy of natamycin/thickener compositions on strawberries. The conditions noted are these: after 6 days of storage at room temperature; 0.6% (w/v) thickening agent, 1000 μg/ml natamycin; B. cinerea. The class given is in vivo. As for the experimental part:
In this experiment the antifungal activity of antimicrobial compositions comprising natamycin and the above-mentioned thickening agents was examined on strawberries. Compositions containing thickening agents and the antifungal agent natamycin were prepared as described in Example 1. The compositions comprised a final concentration of 0.6% (w/v) thickening agent and 1000 μg/ml natamycin. Fresh untreated strawberries from a local retailer in The Netherlands were artificially contaminated with 5 μl of a freshly prepared concentrated suspension of spores (10^6 spores/ml) of the mould species Botrytis cinerea (ATCC 12481). The mould spores were prepared using well-known methods. One hour after contamination the strawberries were dipped for one minute into the freshly prepared antimicrobial compositions, dripped off and dried to the air. The experiment was executed in ninefold. The strawberries were stored for 6 days under the conditions as described in Example 1 and were judged visually on mould development.

In another data set the test system is most fungi. The conditions noted are these: for most fungi; cited from earlier work.
Data set [4] concerns Aspergillus ochraceus (ATCC 60532). The data set is described as follows: Antifungal efficacy of natamycin/thickener compositions on fresh coffee beans. The data set is classed as in vivo. The conditions noted are these: after 4 days of storage at room temperature; 0.6% (w/v) thickening agent, 1000 μg/ml natamycin; A. ochraceus. As for the experimental part: In this experiment the antifungal activity of the antimicrobial compositions comprising natamycin and the above-mentioned thickening agents was examined on fresh coffee beans. Compositions containing thickening agents and the antifungal agent natamycin were prepared as described in Example 1. The compositions comprised a final concentration of 0.6% (w/v) thickening agent and 1000 μg/ml natamycin. Fresh untreated coffee beans from a local retailer in The Netherlands were artificially contaminated with 5 μl of a freshly prepared concentrated suspension of spores (10^6 spores/mil) of the mould Aspergillus ochraceus (ATCC 60532). The mould spores were prepared using well-known methods. One hour after contamination the coffee beans were dipped for one minute into the freshly prepared antimicrobial compositions, dripped off and dried to the air. The experiment was executed in ninefold. The coffee beans were stored for 4 days under the conditions as described in Example 1 and were judged visually on mould development.

For `C[C@@H]1C/C=C/C=C/C=C/C=C/[C@H](O[C@@H]2O[C@H](C)[C@@H](O)[C@H](N)[C@@H]2O)C[C@@H]2O[C@](O)(C[C@@H](O)C[C@H]3O[C@@H]3/C=C/C(=O)O1)C[C@H](O)[C@H]2C(=O)O` [Natamycin, natamycin], the solubility in water in data set [1] was 30 to 50 µg/mL. Besides, in data set [2], the “Moulded orange wounds (total amount of wounds is 9)” value stood at 9. The “Moulded strawberries of the total of 9” value in data set [3] stood at 6. In the data set with most fungi, the “MIC (Minimal Inhibitory Concentration)” value is reported as “less than 10 mg/l”. For the same compound, the “Moulded coffee beans of the total of 9” value in data set [4] came to 9.
